The results in this text go back to the Kinase Knowledgebase extract (Sharma et al. 2016).

Some targets named below: PIK3CA (human) (UniProt P42336); PIK3CG (human) (UniProt P48736); PIK3CD (Human) (UniProt O00329); PIK3CB (Human) (UniProt P42338).
Assay in all cases: Enzyme Assay

Chain of PIK3CG (human) (P48736 whole entry, looked up): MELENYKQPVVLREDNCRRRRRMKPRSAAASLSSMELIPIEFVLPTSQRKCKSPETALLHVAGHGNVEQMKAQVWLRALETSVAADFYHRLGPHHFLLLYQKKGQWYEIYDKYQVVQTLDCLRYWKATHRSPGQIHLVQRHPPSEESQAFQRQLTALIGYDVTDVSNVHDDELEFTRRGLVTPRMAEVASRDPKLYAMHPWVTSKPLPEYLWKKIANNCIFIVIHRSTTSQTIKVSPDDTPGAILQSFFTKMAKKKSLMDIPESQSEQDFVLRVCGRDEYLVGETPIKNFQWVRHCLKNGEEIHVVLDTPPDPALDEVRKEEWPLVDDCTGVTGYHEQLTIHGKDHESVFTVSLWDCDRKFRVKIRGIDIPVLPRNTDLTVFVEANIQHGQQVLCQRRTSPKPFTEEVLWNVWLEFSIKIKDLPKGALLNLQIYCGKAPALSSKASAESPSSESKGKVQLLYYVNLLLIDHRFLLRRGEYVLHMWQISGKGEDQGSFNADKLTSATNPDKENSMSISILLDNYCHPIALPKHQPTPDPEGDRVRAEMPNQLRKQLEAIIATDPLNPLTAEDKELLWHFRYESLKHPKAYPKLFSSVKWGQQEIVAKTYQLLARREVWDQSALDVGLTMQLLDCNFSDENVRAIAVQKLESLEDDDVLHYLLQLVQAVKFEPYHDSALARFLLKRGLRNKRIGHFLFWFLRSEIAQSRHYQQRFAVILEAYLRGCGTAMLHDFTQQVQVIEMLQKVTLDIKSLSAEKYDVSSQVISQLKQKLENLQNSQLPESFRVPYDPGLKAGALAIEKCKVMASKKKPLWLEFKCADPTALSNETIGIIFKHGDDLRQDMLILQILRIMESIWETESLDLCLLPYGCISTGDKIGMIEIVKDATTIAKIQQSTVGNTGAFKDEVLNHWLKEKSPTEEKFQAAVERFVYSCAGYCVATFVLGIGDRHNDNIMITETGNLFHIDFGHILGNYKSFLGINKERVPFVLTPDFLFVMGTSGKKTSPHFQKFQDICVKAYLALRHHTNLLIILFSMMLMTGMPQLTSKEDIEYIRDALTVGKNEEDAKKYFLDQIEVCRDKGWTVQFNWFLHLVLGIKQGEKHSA
Chain of PIK3CA (human) (P42336 whole entry, looked up): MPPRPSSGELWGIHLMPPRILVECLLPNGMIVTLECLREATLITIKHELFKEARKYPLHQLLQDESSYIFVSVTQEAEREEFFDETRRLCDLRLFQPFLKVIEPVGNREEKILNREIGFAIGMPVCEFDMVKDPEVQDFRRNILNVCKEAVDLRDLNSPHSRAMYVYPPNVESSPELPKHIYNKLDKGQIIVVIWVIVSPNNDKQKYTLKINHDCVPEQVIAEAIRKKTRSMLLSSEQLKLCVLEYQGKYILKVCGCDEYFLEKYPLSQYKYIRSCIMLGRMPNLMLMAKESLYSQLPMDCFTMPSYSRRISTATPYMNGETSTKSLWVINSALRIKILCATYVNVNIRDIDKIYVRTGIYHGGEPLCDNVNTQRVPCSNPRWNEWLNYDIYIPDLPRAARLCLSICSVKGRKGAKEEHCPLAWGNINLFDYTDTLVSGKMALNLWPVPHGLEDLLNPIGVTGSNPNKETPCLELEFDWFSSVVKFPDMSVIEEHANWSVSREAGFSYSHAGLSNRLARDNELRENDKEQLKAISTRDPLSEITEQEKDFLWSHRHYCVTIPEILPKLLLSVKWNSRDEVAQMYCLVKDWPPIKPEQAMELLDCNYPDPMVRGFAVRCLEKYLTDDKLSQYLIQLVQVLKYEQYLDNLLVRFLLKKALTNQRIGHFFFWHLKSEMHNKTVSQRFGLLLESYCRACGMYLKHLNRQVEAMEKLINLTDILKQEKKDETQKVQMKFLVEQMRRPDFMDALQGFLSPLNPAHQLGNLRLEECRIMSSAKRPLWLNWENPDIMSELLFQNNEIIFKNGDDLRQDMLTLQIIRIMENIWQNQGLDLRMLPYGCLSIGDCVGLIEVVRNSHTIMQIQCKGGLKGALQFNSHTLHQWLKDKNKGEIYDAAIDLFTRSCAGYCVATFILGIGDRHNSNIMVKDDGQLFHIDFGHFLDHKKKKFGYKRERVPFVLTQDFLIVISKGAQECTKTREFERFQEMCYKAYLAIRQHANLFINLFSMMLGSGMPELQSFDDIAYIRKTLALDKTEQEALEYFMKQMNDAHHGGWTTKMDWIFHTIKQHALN
Chain of PIK3CD (Human) (O00329 whole entry, looked up): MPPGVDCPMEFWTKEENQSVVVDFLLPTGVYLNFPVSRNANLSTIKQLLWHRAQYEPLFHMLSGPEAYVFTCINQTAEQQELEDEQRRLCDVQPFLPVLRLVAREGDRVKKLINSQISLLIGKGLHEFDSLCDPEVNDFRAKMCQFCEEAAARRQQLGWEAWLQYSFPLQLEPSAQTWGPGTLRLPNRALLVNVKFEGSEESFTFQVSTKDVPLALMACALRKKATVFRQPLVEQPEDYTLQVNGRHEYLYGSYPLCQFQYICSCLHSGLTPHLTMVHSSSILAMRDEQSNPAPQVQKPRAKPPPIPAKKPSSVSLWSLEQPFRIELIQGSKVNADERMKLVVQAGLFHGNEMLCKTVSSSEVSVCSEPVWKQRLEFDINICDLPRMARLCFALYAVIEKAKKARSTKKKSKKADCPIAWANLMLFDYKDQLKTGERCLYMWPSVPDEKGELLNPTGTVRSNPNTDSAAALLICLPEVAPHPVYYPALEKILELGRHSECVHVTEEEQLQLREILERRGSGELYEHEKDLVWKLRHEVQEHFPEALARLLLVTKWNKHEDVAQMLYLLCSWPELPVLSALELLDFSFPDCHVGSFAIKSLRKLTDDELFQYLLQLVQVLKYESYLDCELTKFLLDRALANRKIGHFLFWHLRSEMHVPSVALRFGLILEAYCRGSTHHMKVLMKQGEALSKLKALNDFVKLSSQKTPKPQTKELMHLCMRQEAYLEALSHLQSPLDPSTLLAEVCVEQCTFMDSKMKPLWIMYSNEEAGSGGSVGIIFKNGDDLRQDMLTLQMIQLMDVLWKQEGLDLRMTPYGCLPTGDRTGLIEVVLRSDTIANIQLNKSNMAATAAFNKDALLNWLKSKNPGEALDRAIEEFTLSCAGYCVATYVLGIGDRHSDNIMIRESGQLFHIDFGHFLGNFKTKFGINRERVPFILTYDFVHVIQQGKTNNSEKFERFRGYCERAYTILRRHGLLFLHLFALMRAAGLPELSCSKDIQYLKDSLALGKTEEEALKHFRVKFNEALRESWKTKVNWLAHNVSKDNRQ
Chain of PIK3CB (Human) (P42338 whole entry, looked up): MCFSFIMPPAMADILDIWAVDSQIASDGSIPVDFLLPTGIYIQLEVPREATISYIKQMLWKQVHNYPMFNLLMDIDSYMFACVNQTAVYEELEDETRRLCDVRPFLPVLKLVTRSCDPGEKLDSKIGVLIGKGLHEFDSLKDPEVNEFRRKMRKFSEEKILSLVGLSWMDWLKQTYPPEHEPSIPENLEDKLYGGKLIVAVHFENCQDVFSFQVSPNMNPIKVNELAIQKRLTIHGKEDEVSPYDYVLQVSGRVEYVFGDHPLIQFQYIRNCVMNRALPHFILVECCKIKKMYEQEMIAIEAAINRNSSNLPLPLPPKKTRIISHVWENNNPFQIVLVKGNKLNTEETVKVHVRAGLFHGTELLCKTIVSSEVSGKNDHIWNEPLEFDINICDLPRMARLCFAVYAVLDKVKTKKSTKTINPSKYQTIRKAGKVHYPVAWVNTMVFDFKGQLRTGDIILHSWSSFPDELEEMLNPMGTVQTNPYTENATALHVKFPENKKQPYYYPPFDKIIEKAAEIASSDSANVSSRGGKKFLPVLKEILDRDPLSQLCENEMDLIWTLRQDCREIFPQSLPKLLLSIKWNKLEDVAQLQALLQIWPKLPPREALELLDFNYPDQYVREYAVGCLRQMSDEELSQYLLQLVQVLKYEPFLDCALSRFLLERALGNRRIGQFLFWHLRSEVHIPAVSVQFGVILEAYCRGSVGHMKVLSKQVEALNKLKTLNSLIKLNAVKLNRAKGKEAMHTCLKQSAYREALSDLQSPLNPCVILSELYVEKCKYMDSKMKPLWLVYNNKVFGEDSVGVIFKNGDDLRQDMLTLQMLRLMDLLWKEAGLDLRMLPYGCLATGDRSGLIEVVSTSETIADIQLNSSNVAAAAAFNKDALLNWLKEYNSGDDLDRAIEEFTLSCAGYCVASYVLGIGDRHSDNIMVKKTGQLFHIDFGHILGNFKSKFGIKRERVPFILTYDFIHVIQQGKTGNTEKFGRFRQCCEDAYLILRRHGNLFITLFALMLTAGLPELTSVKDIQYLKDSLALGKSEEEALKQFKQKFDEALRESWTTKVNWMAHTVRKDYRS

For `Cc1ccccc1-n1c(Cn2nc(Cl)c3c(N)ncnc32)cc2cccc(C)c2c1=O`, the IC50 on PIK3CA (human) is above 10 µM; against PIK3CG (human), 0.1 to 1 µM.
As for `CCc1ccccc1-n1c(Cn2nc(C#C[C@@H](C)O)c3c(N)ncnc32)cc2cccc(C)c2c1=O`, the IC50 was above 10 µM at PIK3CA (human) and 0.1 to 1 µM at PIK3CG (human).
Consider `Cc1cccc2cc(Cn3nc(-c4ccc5nc(N)oc5c4)c4c(N)ncnc43)n(-c3ccccc3)c(=O)c12`, for which the IC50 was 0.1 to 1 µM on PIK3CD (Human) and below 0.1 µM against PIK3CG (human).
Consider `C=Cc1nn(Cc2cc3cccc(C)c3c(=O)n2-c2ccccc2)c2ncnc(N)c12`, for which the IC50 on PIK3CD (Human) was below 0.1 µM; at PIK3CG (human) it was 0.1 to 1 µM.
With `CC(=O)Nc1nc2ccc(-c3nn(Cc4cc5cccc(C)c5c(=O)n4-c4ccccc4)c4ncnc(N)c34)cc2o1`, the IC50 against PIK3CD (Human) and at PIK3CG (human) was 0.1 to 1 µM throughout.
For `Cc1ccccc1-n1c(Cn2nc(-c3cc(O)cc(F)c3)c3c(N)ncnc32)cc2cccc(F)c2c1=O`, the IC50 at PIK3CA (human) was above 10 µM; at PIK3CG (human), 0.1 to 1 µM.
Consider `Cc1cccc2cc(Cn3nc(-c4cn[nH]c4)c4c(N)ncnc43)n(-c3ccccc3)c(=O)c12`, for which the IC50 at PIK3CD (Human) was below 0.1 µM; at PIK3CG (human), 0.1 to 1 µM.
`Cc1cccc2cc(Cn3nc(-c4ccc5oc(N)nc5c4)c4c(N)ncnc43)n(C3CCC3)c(=O)c12`: the IC50 is 0.1 to 1 µM on PIK3CA (human), 0.1 to 1 µM against PIK3CB (Human) and below 0.1 µM against PIK3CD (Human).
Consider `Cc1cccc2cc(C(C)Nc3ncnc4[nH]cnc34)n(C(C)C)c(=O)c12` (centres undefined), for which the IC50 on PIK3CD (Human) is below 0.1 µM; against PIK3CG (human), 0.1 to 1 µM.
With `Cc1cccc2cc([C@H](C)Nc3ncnc4[nH]cc(C(N)=O)c34)n(-c3ccccc3)c(=O)c12`, the half-inhibitory concentration (IC50) on PIK3CA (human) is 0.1 to 1 µM; on PIK3CB (Human) it was below 0.1 µM; at PIK3CD (Human), below 0.1 µM.
For the compound `CCc1nn(Cc2cc3cccc(C)c3c(=O)n2-c2ccccc2C)c2ncnc(N)c12`, the IC50 on PIK3CA (human) is above 10 µM; against PIK3CB (Human), above 10 µM; on PIK3CD (Human) it was below 0.1 µM.
Regarding `Cc1cccc2cc(C(C)Nc3nc(Cl)ncc3N)n(-c3ccccc3)c(=O)c12` (centres undefined), the half-inhibitory concentration (IC50) against PIK3CA (human), against PIK3CB (Human) and against PIK3CD (Human) was above 10 µM each time.
Take `Cc1cccc2cc([C@H](C)NC3CCOCC3)n(-c3ccccc3)c(=O)c12`: the IC50 at PIK3CA (human), against PIK3CB (Human) and on PIK3CD (Human) was above 10 µM each time.
Take `Cc1ccccc1-n1c(Cn2nc(-c3ccn[nH]3)c3c(N)ncnc32)cc2cccc(C)c2c1=O`: the values for the IC50 at PIK3CA (human), against PIK3CB (Human) and against PIK3CD (Human) were above 10 µM, above 10 µM and 0.1 to 1 µM, respectively.
Turning to `Cc1cccc2cc([C@H](C)Nc3nc(Cl)ncc3Cl)n(-c3ccccc3)c(=O)c12`, the IC50 on PIK3CA (human) is above 10 µM; against PIK3CB (Human) it was above 10 µM; against PIK3CD (Human), 0.1 to 1 µM.
On to `Cc1cccc2cc([C@H](C)Nc3ncnc4[nH]cc(C#N)c34)n(C3CC3)c(=O)c12`, for which the IC50 on PIK3CA (human) was 0.1 to 1 µM; against PIK3CB (Human) it was below 0.1 µM; on PIK3CD (Human), below 0.1 µM.
For `COc1ccc(-c2nn(Cc3cc4cccc(C)c4c(=O)n3-c3ccccc3C)c3ncnc(N)c23)cc1OC`, the IC50 against PIK3CA (human) is above 10 µM; on PIK3CB (Human) it was above 10 µM; against PIK3CD (Human), 0.1 to 1 µM.
`Cc1cccc2cc(C(C)Nc3ncnc4[nH]cnc34)n(C3CCN(C)CC3)c(=O)c12` (centres undefined): the IC50 was above 10 µM on PIK3CA (human), 0.1 to 1 µM at PIK3CB (Human) and below 0.1 µM against PIK3CD (Human).
In the case of `Cc1cccc2cc([C@@H](C)Nc3ncnc4[nH]cnc34)n(C3CCC3)c(=O)c12`, the 50% inhibitory concentration (IC50) at PIK3CA (human), against PIK3CB (Human) and at PIK3CD (Human) was above 10 µM in each case.
As to `Cc1cccc2cc(Cn3nc(-c4ccn[nH]4)c4c(N)ncnc43)n(-c3ccccc3F)c(=O)c12`, the IC50 against PIK3CA (human) is above 10 µM; at PIK3CB (Human), above 10 µM; against PIK3CD (Human), 0.1 to 1 µM.
In the case of `Cc1ccccc1-n1c(Cn2nc(C#C[C@@H](C)O)c3c(N)ncnc32)cc2cccc(F)c2c1=O`, the IC50 against PIK3CA (human) is above 10 µM; on PIK3CB (Human), above 10 µM; against PIK3CD (Human), 0.1 to 1 µM.
As for `Cc1cccc2cc(C(C)Nc3nc(N)nc4[nH]cnc34)n(-c3ccccc3)c(=O)c12` (centres undefined), the IC50 on PIK3CA (human) was 0.1 to 1 µM; on PIK3CB (Human) it was below 0.1 µM; against PIK3CD (Human), below 0.1 µM.
For `COc1cc(-c2nn(Cc3cc4cccc(C)c4c(=O)n3-c3ccccc3C)c3ncnc(N)c23)ccc1Cl`, the values for the IC50 against PIK3CA (human), against PIK3CB (Human) and against PIK3CD (Human) were above 10 µM, above 10 µM and 0.1 to 1 µM, respectively.
`Cc1cccc2cc(C(C)Nc3ncnc4[nH]cnc34)n(C3CCOCC3)c(=O)c12` (centres undefined): the IC50 against PIK3CD (Human) was below 0.1 µM; against PIK3CG (human) it was 0.1 to 1 µM.
For `Nc1ncnc2c1c(-c1cn[nH]c1)nn2Cc1cc2cccc(F)c2c(=O)n1-c1ccccc1F`, the results for the IC50 against PIK3CA (human), on PIK3CB (Human) and against PIK3CD (Human) were above 10 µM, above 10 µM and 0.1 to 1 µM, respectively.
Turning to `Cc1cccc2cc(Cn3nc(-c4ccc5sc(N)nc5c4)c4c(N)ncnc43)n(-c3ccccc3)c(=O)c12`, the IC50 on PIK3CA (human) is 0.1 to 1 µM; against PIK3CB (Human), 0.1 to 1 µM; against PIK3CD (Human), below 0.1 µM.
